Source: ChEMBL document CHEMBL2380193, “New trifluoromethyl quinolone derivatives: synthesis and investigation of antimicrobial properties” (2013)
In brackets after ≈: the same amount, converted by molar mass.

Key:
[1] = tested on: Candida albicans; assay: Antifungal activity against Candida albicans MTCC 227 assessed as zone of inhibition at 100 ug/ml after 30 hrs by cup plate method; assay type: functional; settings: MTCC 227, 30 h, read-out: IZ
[2] = tested on: Candida albicans; assay: Antifungal activity against Candida albicans MTCC 227 after 30 hrs by serial dilution method; assay type: functional; settings: MTCC 227, 30 h
[3] = tested on: Aspergillus flavus; assay: Antifungal activity against Aspergillus flavus MTCC 277 assessed as zone of inhibition at 100 ug/ml after 30 hrs by cup plate method; assay type: functional; settings: MTCC 277, 30 h, read-out: IZ
[4] = tested on: Aspergillus flavus; assay: Antifungal activity against Aspergillus flavus MTCC 277 after 30 hrs by serial dilution method; assay type: functional; settings: MTCC 277, 30 h
[5] = tested on: Aspergillus fumigatus; assay: Antifungal activity against Aspergillus fumigatus MTCC 343 assessed as zone of inhibition at 100 ug/ml after 30 hrs by cup plate method; assay type: functional; settings: MTCC 343, 30 h, read-out: IZ
[6] = tested on: Aspergillus fumigatus; assay: Antifungal activity against Aspergillus fumigatus MTCC 343 after 30 hrs by serial dilution method; assay type: functional; settings: MTCC 343, 30 h
[7] = tested on: Aspergillus niger; assay: Antifungal activity against Aspergillus niger MTCC 282 assessed as zone of inhibition at 100 ug/ml after 30 hrs by cup plate method; assay type: functional; settings: MTCC 282, 30 h, read-out: IZ
[8] = tested on: Aspergillus niger; assay: Antifungal activity against Aspergillus niger MTCC 282 after 30 hrs by serial dilution method; assay type: functional; settings: MTCC 282, 30 h
[9] = tested on: Klebsiella pneumoniae; assay: Antibacterial activity against Klebsiella pneumoniae MTCC 432 assessed as zone of inhibition at 100 ug/ml after 14 hrs by cup plate method; assay type: functional; settings: MTCC 432, 14 h, read-out: IZ
[10] = tested on: Klebsiella pneumoniae; assay: Antibacterial activity against Klebsiella pneumoniae MTCC 432 after 14 hrs by serial dilution method; assay type: functional; settings: MTCC 432, 14 h
[11] = tested on: Salmonella typhi; assay: Antibacterial activity against Salmonella typhi MTCC 733 assessed as zone of inhibition at 100 ug/ml after 14 hrs by cup plate method; assay type: functional, Salmonella enterica subsp. enterica serovar Typhi; settings: Salmonella enterica, MTCC 733, 14 h; read-out: IZ
[12] = tested on: Salmonella typhi; assay: Antibacterial activity against Salmonella typhi MTCC 733 after 14 hrs by serial dilution method; assay type: functional, Salmonella enterica subsp. enterica serovar Typhi; settings: Salmonella enterica, MTCC 733, 14 h
[13] = tested on: Escherichia coli; assay: Antibacterial activity against Escherichia coli MTCC 443 assessed as zone of inhibition at 100 ug/ml after 14 hrs by cup plate method; assay type: functional; settings: MTCC 443, 14 h, read-out: IZ
[14] = tested on: Bacillus subtilis; assay: Antibacterial activity against Bacillus subtilis MTCC 441 after 14 hrs by serial dilution method; assay type: functional; settings: MTCC 441, 14 h
[15] = tested on: Staphylococcus aureus; assay: Antibacterial activity against Staphylococcus aureus MTCC 096 assessed as zone of inhibition at 100 ug/ml after 14 hrs by cup plate method; assay type: functional; settings: MTCC 096, 14 h, read-out: IZ
[16] = tested on: Staphylococcus aureus; assay: Antibacterial activity against Staphylococcus aureus MTCC 096 after 14 hrs by serial dilution method; assay type: functional; settings: MTCC 096, 14 h
[17] = tested on: Escherichia coli; assay: Antibacterial activity against Escherichia coli MTCC 443 after 14 hrs by serial dilution method; assay type: functional; settings: MTCC 443, 14 h
[18] = tested on: Bacillus subtilis; assay: Antibacterial activity against Bacillus subtilis MTCC 441 assessed as zone of inhibition at 100 ug/ml after 14 hrs by cup plate method; assay type: functional; settings: MTCC 441, 14 h, read-out: IZ

Row | SMILES | zone of inhibition at 100 µg/mL [1] [mm] | MIC [2] [µg/mL] | zone of inhibition at 100 µg/mL [3] [mm] | MIC [4] [µg/mL] | zone of inhibition at 100 µg/mL [5] [mm] | MIC [6] [µg/mL] | zone of inhibition at 100 µg/mL [7] [mm] | MIC [8] [µg/mL] | zone of inhibition at 100 µg/mL [9] [mm] | MIC [10] [µg/mL] | zone of inhibition at 100 µg/mL [11] [mm] | MIC [12] [µg/mL] | zone of inhibition at 100 µg/mL [13] [mm] | MIC [14] [µg/mL] | zone of inhibition at 100 µg/mL [15] [mm] | MIC [16] [µg/mL] | MIC [17] [µg/mL] | zone of inhibition at 100 µg/mL [18] [mm]
1 | O=c1cc(C(F)(F)F)n(C/C=C/CN2CCCC2)c2ccc(F)cc12 | 15 | 6.25 (≈ 17.6 µM) | 12 | 12.5 (≈ 35.3 µM) | 12 | 12.5 (≈ 35.3 µM) | 12 | 12.5 (≈ 35.3 µM) | 12 | 12.5 (≈ 35.3 µM) | < 10 | 25 (≈ 70.6 µM) | < 10 | 12.5 (≈ 35.3 µM) | 15 | 6.25 (≈ 17.6 µM) | 50 (≈ 141 µM) | 12
2 | O=c1cc(C(F)(F)F)n(CCCCN2CCCC2)c2ccc(F)cc12 | 16 | 6.25 (≈ 17.5 µM) | 12 | 12.5 (≈ 35.1 µM) | 12 | 12.5 (≈ 35.1 µM) | 12 | 12.5 (≈ 35.1 µM) | 13 | 12.5 (≈ 35.1 µM) | 12 | 12.5 (≈ 35.1 µM) | < 10 | 6.25 (≈ 17.5 µM) | 14 | 6.25 (≈ 17.5 µM) | 50 (≈ 140 µM) | 15
3 | O=c1cc(C(F)(F)F)n(C/C=C/CN2CCCCC2)c2ccc(F)cc12 | 12 | 12.5 (≈ 33.9 µM) | < 10 | 25 (≈ 67.9 µM) | < 10 | 25 (≈ 67.9 µM) | 17 | 6.25 (≈ 17 µM) | 12 | 12.5 (≈ 33.9 µM) | < 10 | 25 (≈ 67.9 µM) | < 10 | 12.5 (≈ 33.9 µM) | 13 | 12.5 (≈ 33.9 µM) | 50 (≈ 136 µM) | 12
4 | O=c1cc(C(F)(F)F)n(C/C=C/CN2CCOCC2)c2ccc(F)cc12 | 15 | 6.25 (≈ 16.9 µM) | < 10 | 25 (≈ 67.5 µM) | < 10 | 25 (≈ 67.5 µM) | 17 | 6.25 (≈ 16.9 µM) | < 10 | 25 (≈ 67.5 µM) | < 10 | 50 (≈ 135 µM) | < 10 | 6.25 (≈ 16.9 µM) | 12 | 12.5 (≈ 33.8 µM) | 25 (≈ 67.5 µM) | 14
5 | CN1CCN(C/C=C/Cn2c(C(F)(F)F)cc(=O)c3cc(F)ccc32)CC1 | 15 | 6.25 (≈ 16.3 µM) | 12 | 12.5 (≈ 32.6 µM) | 12 | 12.5 (≈ 32.6 µM) | 12 | 12.5 (≈ 32.6 µM) | 12 | 12.5 (≈ 32.6 µM) | 12 | 12.5 (≈ 32.6 µM) | < 10 | 6.25 (≈ 16.3 µM) | 15 | 6.25 (≈ 16.3 µM) | 50 (≈ 130 µM) | 14
6 | O=C1c2ccccc2C(=O)N1CCCCOc1cc(C(F)(F)F)nc2ccccc12 | 17 | 6.25 (≈ 15.1 µM) | < 10 | 25 (≈ 60.3 µM) | 12 | 12.5 (≈ 30.2 µM) | 17 | 6.25 (≈ 15.1 µM) | 12 | 12.5 (≈ 30.2 µM) | < 10 | 25 (≈ 60.3 µM) | < 10 | 6.25 (≈ 15.1 µM) | 16 | 6.25 (≈ 15.1 µM) | 50 (≈ 121 µM) | 16
